Test results from the NIST ThermoML archive (doi:10.1021/je700428f).

Assay: xn = mol fraction of the nth substance listed
Details: 101 kPa, Liquid; for viscosity: Capillary tube (Ostwald / Ubbelohde) method

CCCCCCCCC [nonane] + COC(C)(C)C
Details | mass density [kg/m3] | viscosity [mPa·s]
273.15 K, x2 = 0 | 733.184 | 0.972
273.15 K, x2 = 0.1006 | – | 0.912
273.15 K, x2 = 0.1085 | 734.69 | –
273.15 K, x2 = 0.1722 | 735.67 | –
273.15 K, x2 = 0.2026 | – | 0.85
273.15 K, x2 = 0.2995 | – | 0.796
273.15 K, x2 = 0.3037 | 737.89 | –
273.15 K, x2 = 0.4011 | 739.94 | –
273.15 K, x2 = 0.4045 | – | 0.74
273.15 K, x2 = 0.5003 | – | 0.688
273.15 K, x2 = 0.5008 | 742.31 | –
273.15 K, x2 = 0.6005 | 745.08 | –
273.15 K, x2 = 0.6035 | – | 0.632
273.15 K, x2 = 0.6992 | 748.17 | –
273.15 K, x2 = 0.6998 | – | 0.586
273.15 K, x2 = 0.7975 | – | 0.54
273.15 K, x2 = 0.8005 | 751.89 | –
273.15 K, x2 = 0.8925 | 755.81 | –
273.15 K, x2 = 0.8971 | – | 0.491
278.15 K, x2 = 0 | 729.335 | 0.896
278.15 K, x2 = 0.1006 | – | 0.842
278.15 K, x2 = 0.1085 | 730.78 | –
278.15 K, x2 = 0.1722 | 731.71 | –
278.15 K, x2 = 0.2026 | – | 0.787
278.15 K, x2 = 0.2995 | – | 0.738
278.15 K, x2 = 0.3037 | 733.82 | –
278.15 K, x2 = 0.4011 | 735.78 | –
278.15 K, x2 = 0.4045 | – | 0.689
278.15 K, x2 = 0.5003 | – | 0.641
278.15 K, x2 = 0.5008 | 738.04 | –
278.15 K, x2 = 0.6005 | 740.68 | –
278.15 K, x2 = 0.6035 | – | 0.591
278.15 K, x2 = 0.6992 | 743.64 | –
278.15 K, x2 = 0.6998 | – | 0.549
278.15 K, x2 = 0.7975 | – | 0.505
278.15 K, x2 = 0.8005 | 747.2 | –
278.15 K, x2 = 0.8925 | 750.95 | –
278.15 K, x2 = 0.8971 | – | 0.46
283.15 K, x2 = 0 | 725.473 | 0.828
283.15 K, x2 = 0.1006 | – | 0.78
283.15 K, x2 = 0.1085 | 726.84 | –
283.15 K, x2 = 0.1722 | 727.73 | –
283.15 K, x2 = 0.2026 | – | 0.731
283.15 K, x2 = 0.2995 | – | 0.687
283.15 K, x2 = 0.3037 | 729.73 | –
283.15 K, x2 = 0.4011 | 731.59 | –
283.15 K, x2 = 0.4045 | – | 0.643
283.15 K, x2 = 0.5003 | – | 0.598
283.15 K, x2 = 0.5008 | 733.74 | –
283.15 K, x2 = 0.6005 | 736.26 | –
283.15 K, x2 = 0.6035 | – | 0.554
283.15 K, x2 = 0.6992 | 739.08 | –
283.15 K, x2 = 0.6998 | – | 0.514
283.15 K, x2 = 0.7975 | – | 0.474
283.15 K, x2 = 0.8005 | 742.47 | –
283.15 K, x2 = 0.8925 | 746.06 | –
283.15 K, x2 = 0.8971 | – | 0.433
288.15 K, x2 = 0 | 721.603 | 0.768
288.15 K, x2 = 0.1006 | – | 0.726
288.15 K, x2 = 0.1085 | 722.9 | –
288.15 K, x2 = 0.1722 | 723.73 | –
288.15 K, x2 = 0.2026 | – | 0.681
288.15 K, x2 = 0.2995 | – | 0.641
288.15 K, x2 = 0.3037 | 725.62 | –
288.15 K, x2 = 0.4011 | 727.39 | –
288.15 K, x2 = 0.4045 | – | 0.6
288.15 K, x2 = 0.5003 | – | 0.56
288.15 K, x2 = 0.5008 | 729.43 | –
288.15 K, x2 = 0.6005 | 731.81 | –
288.15 K, x2 = 0.6035 | – | 0.52
288.15 K, x2 = 0.6992 | 734.49 | –
288.15 K, x2 = 0.6998 | – | 0.484
288.15 K, x2 = 0.7975 | – | 0.446
288.15 K, x2 = 0.8005 | 737.72 | –
288.15 K, x2 = 0.8925 | 741.13 | –
288.15 K, x2 = 0.8971 | – | 0.407
293.15 K, x2 = 0 | 717.725 | 0.716
293.15 K, x2 = 0.1006 | – | 0.677
293.15 K, x2 = 0.1085 | 718.92 | –
293.15 K, x2 = 0.1722 | 719.72 | –
293.15 K, x2 = 0.2026 | – | 0.637
293.15 K, x2 = 0.2995 | – | 0.601
293.15 K, x2 = 0.3037 | 721.51 | –
293.15 K, x2 = 0.4011 | 723.16 | –
293.15 K, x2 = 0.4045 | – | 0.564
293.15 K, x2 = 0.5003 | – | 0.526
293.15 K, x2 = 0.5008 | 725.09 | –
293.15 K, x2 = 0.6005 | 727.34 | –
293.15 K, x2 = 0.6035 | – | 0.489
293.15 K, x2 = 0.6992 | 729.87 | –
293.15 K, x2 = 0.6998 | – | 0.455
293.15 K, x2 = 0.7975 | – | 0.418
293.15 K, x2 = 0.8005 | 732.94 | –
293.15 K, x2 = 0.8925 | 736.17 | –
293.15 K, x2 = 0.8971 | – | 0.384
298.15 K, x2 = 0 | 713.834 | 0.669
298.15 K, x2 = 0.1006 | – | 0.634
298.15 K, x2 = 0.1085 | 714.95 | –
298.15 K, x2 = 0.1722 | 715.7 | –
298.15 K, x2 = 0.2026 | – | 0.598
298.15 K, x2 = 0.2995 | – | 0.564
298.15 K, x2 = 0.3037 | 717.36 | –
298.15 K, x2 = 0.4011 | 718.92 | –
298.15 K, x2 = 0.4045 | – | 0.529
298.15 K, x2 = 0.5003 | – | 0.496
298.15 K, x2 = 0.5008 | 720.73 | –
298.15 K, x2 = 0.6005 | 722.84 | –
298.15 K, x2 = 0.6035 | – | 0.461
298.15 K, x2 = 0.6992 | 725.22 | –
298.15 K, x2 = 0.6998 | – | 0.43
298.15 K, x2 = 0.7975 | – | 0.396
298.15 K, x2 = 0.8005 | 728.11 | –
298.15 K, x2 = 0.8925 | 731.18 | –
298.15 K, x2 = 0.8971 | – | 0.363
303.15 K, x2 = 0 | 709.929 | 0.628
303.15 K, x2 = 0.1006 | – | 0.596
303.15 K, x2 = 0.1085 | 710.96 | –
303.15 K, x2 = 0.1722 | 711.66 | –
303.15 K, x2 = 0.2026 | – | 0.563
303.15 K, x2 = 0.2995 | – | 0.532
303.15 K, x2 = 0.3037 | 713.21 | –
303.15 K, x2 = 0.4011 | 714.65 | –
303.15 K, x2 = 0.4045 | – | 0.498
303.15 K, x2 = 0.5003 | – | 0.468
303.15 K, x2 = 0.5008 | 716.34 | –
303.15 K, x2 = 0.6005 | 718.32 | –
303.15 K, x2 = 0.6035 | – | 0.436
303.15 K, x2 = 0.6992 | 720.55 | –
303.15 K, x2 = 0.6998 | – | 0.408
303.15 K, x2 = 0.7975 | – | 0.377
303.15 K, x2 = 0.8005 | 723.25 | –
303.15 K, x2 = 0.8925 | 726.13 | –
308.15 K, x2 = 0 | – | 0.59
308.15 K, x2 = 0.1006 | – | 0.56
308.15 K, x2 = 0.2026 | – | 0.531
308.15 K, x2 = 0.2995 | – | 0.502
308.15 K, x2 = 0.4045 | – | 0.47
308.15 K, x2 = 0.5003 | – | 0.443
308.15 K, x2 = 0.6035 | – | 0.413
